Source: patent US20260078103A1, “ISOQUINOLONES AS PI3K INHIBITORS” (OnKure, Inc., priority 2022, published 2026)
Read-outs that look alike come from different tables or passages of the source.

Key:
Type in all cases: cell-based
[1] = test system: T47D cells expressing mutant PI3Ka (H1047R); assay: In vitro cell proliferation, T47D cells (CellTiter-Glo); conditions: inhibition of proliferation, read-out: Avg T-47D EC50
Summary of the method: (§1)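 1,500 cells/well seeded onto pre-stamped 10-pt dilution plates; T47D in RPMI + 10% FBS + insulin 0.2 units/mL, SKBR3 in McCoys 5a + 10% FBS. 72 h, 37 °C, 5% CO2. CTG readout. 0% = 0.1% DMSO, 100% = 10 uM Alpelisib; sigmoidal fit gives EC50.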

[2] = test system: SKBR3 cells express WT PI3Ka; assay: In vitro cell proliferation, SKBR3 cells (CellTiter-Glo); conditions: inhibition of proliferation
Summary of the method: as §1

[3] = test system: phosphorylation of AKT (pAKT) in T47D cells expressing mutant PI3Ka (H1047R); assay: In vitro cell pAKT (Ser473) HTRF, T47D cells; conditions: cellular pAKT, T47D cells, mutant PI3Ka (H1047R), 6 hours, read-out: Avg T-47D IC50
Summary of the method: (§2)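 T47D cells (RPMI, 10% FBS, 0.2 units/mL insulin) or SKBR3 cells (McCoy's 5a, 10% FBS) were seeded onto 10-point compound dilutions and incubated 6 h at 37 °C. After lysis, pAKT was detected overnight by HTRF (Eu cryptate/d2). IC50 was fitted from % inhibition relative to 0.1% DMSO and 10 uM alpelisib controls.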

[4] = test system: phosphorylation of AKT (pAKT) in SKBR3 cells express WT PI3Ka; assay: In vitro cell pAKT (Ser473) HTRF, SKBR3 cells; conditions: cellular pAKT
Summary of the method: as §2

Row | SMILES | EC50 ([1]; Homo sapiens, T47D, 72 h) [nM] | EC50 ([2]; Homo sapiens, SK-BR-3, 72 h) [nM] | IC50 ([3]; Homo sapiens, T47D, 6 h) [nM] | IC50 ([4]; Homo sapiens, SK-BR-3, 6 h) [nM] | EC50 ([1]; 72 hours) [nM] | EC50 ([2]; 72 hours) [nM] | IC50 [3] [nM] | IC50 ([4]; 6 hours) [nM]
1 | Cc1nc(N2CCN(c3cc4c([C@@H](C)Nc5cccc(F)c5C(=O)O)cc(F)cc4c(=O)n3C)CC2)cs1 [Example 490] | 1 to 500 | 2000 to 15000 | 1 to 500 | 2000 to 15000 | – | – | – | –
2 | Cc1nc(N2CCN(c3cc4c([C@@H](C)Nc5ccccc5C(=O)O)cc(F)cc4c(=O)n3C)CC2)cs1 [Example 491] | 1 to 500 | 2000 to 15000 | 1 to 500 | 2000 to 15000 | – | – | – | –
3 | Cc1cnc(N2CCN(c3cc4c([C@@H](C)Nc5ccccc5C(=O)O)cc(F)cc4c(=O)n3C)CC2)c(C)n1 [Example 492] | 1 to 500 | 2000 to 15000 | 1 to 500 | 2000 to 15000 | – | – | – | –
4 | Cc1ncc(N2CCN(c3cc4c([C@@H](C)Nc5ccccc5C(=O)O)cc(F)cc4c(=O)n3C)CC2)c(C)n1 [Example 495] | 1 to 500 | 2000 to 15000 | 1 to 500 | 500 to 2000 | – | – | – | –
5 | C[C@@H](Nc1ccccc1C(=O)O)c1cc(F)cc2c(=O)n(C)c(-c3cc(F)c4nn(C(F)F)cc4c3)cc12 [Example 496] | 500 to 2000 | > 15000 | 1 to 500 | > 15000 | – | – | – | –
6 | C[C@@H](Nc1ccccc1C(=O)O)c1cc(F)cc2c(=O)n(C)c(-c3ccc(OC4CC4)nc3)cc12 [Example 497] | 1 to 500 | > 15000 | 1 to 500 | > 15000 | – | – | – | –
7 | CC(=O)N1CCN(c2cc3c([C@@H](C)Nc4ccccc4C(=O)O)cc(C)cc3c(=O)n2C)CC1 [Example 498] | 500 to 2000 | > 15000 | 500 to 2000 | > 15000 | – | – | – | –
8 | Cc1cc([C@@H](C)Nc2ccccc2C(=O)O)c2cc(N3CCN(C=O)CC3)n(C)c(=O)c2c1 [Example 499] | 500 to 2000 | > 15000 | 500 to 2000 | > 15000 | – | – | – | –
9 | Cc1ncc(-c2cc3c([C@@H](C)Nc4ccccc4C(=O)O)cc(F)cc3c(=O)n2C)s1 [Example 501] | 1 to 500 | > 15000 | 1 to 500 | > 15000 | – | – | – | –
10 | Cc1ccc(N2CCN(c3cc4c([C@@H](C)Nc5ccccc5C(=O)O)cc(F)cc4c(=O)n3C)CC2(C)C)cn1 [Example 502] | 1 to 500 | 2000 to 15000 | 1 to 500 | 500 to 2000 | – | – | – | –
11 | Cc1cc([C@@H](C)Nc2ncccc2C(=O)O)c2cc(N3CCN(CC(F)(F)F)CC3)n(C)c(=O)c2c1 [Example 503] | 500 to 2000 | > 15000 | 500 to 2000 | > 15000 | – | – | – | –
12 | Cc1cnc(-c2cc3c([C@@H](C)Nc4ccccc4C(=O)O)cc(F)cc3c(=O)n2C)s1 [Example 504] | 1 to 500 | > 15000 | 1 to 500 | > 15000 | – | – | – | –
13 | C[C@@H](Nc1ccccc1C(=O)O)c1cc(F)cc2c(=O)n(C)c(-c3cnc(-c4ncc(Cl)cc4F)c(F)c3)cc12 [Example 505] | – | – | – | – | 1 to 500 | > 15000 | 1 to 500 | > 15000
14 | C[C@@H](Nc1ccccc1C(=O)O)c1cc(F)cc2c(=O)n(C)c(-c3ccc(OC4COC4)nc3)cc12 [Example 507] | – | – | – | – | 500 to 2000 | > 15000 | 1 to 500 | > 15000
15 | C[C@@H](Nc1ccccc1C(=O)O)c1cc(F)cc2c(=O)n(C)c(-c3cnc(C(F)(F)F)s3)cc12 [Example 508] | 500 to 2000 | > 15000 | 500 to 2000 | > 15000 | – | – | – | –
16 | Cc1cc([C@@H](C)Nc2ccccc2C(=O)O)c2cc(N3CCN(c4cnc(C(F)(F)F)nc4)CC3)n(C)c(=O)c2c1 [Example 509] | 1 to 500 | 2000 to 15000 | 1 to 500 | 2000 to 15000 | – | – | – | –
17 | C[C@@H](Nc1ccccc1C(=O)O)c1cc(F)cc2c(=O)n(C)c(N3CCN(CC(F)(F)F)C(C)(C)C3)cc12 [Example 510] | 1 to 500 | > 15000 | 1 to 500 | > 15000 | – | – | – | –
18 | C[C@@H](Nc1ccccc1C(=O)O)c1cc(F)cc2c(=O)n(C)c(N3CC4CCC(C3)N4CC(F)(F)F)cc12 [Example 511] | 1 to 500 | 2000 to 15000 | 1 to 500 | > 15000 | – | – | – | –
19 | Cc1cc(N2CCN(c3cc4c([C@@H](C)Nc5ccccc5C(=O)O)cc(F)cc4c(=O)n3C)CC2)on1 [Example 512] | 1 to 500 | 2000 to 15000 | 1 to 500 | 2000 to 15000 | – | – | – | –
20 | COc1ncc(-c2cc3c([C@@H](C)Nc4ccccc4C(=O)O)cc(F)cc3c(=O)n2C)s1 [Example 513] | 1 to 500 | > 15000 | 1 to 500 | > 15000 | – | – | – | –
21 | Cc1cnc(-c2ncc(-c3cc4c([C@@H](C)Nc5ccccc5C(=O)O)cc(F)cc4c(=O)n3C)cc2F)cn1 [Example 515] | 1 to 500 | 2000 to 15000 | 1 to 500 | > 15000 | – | – | – | –
22 | Cc1cc([C@@H](C)Nc2ccccc2C(=O)O)c2cc(-c3cnc(C(C)C)cn3)n(C)c(=O)c2c1 [Example 516] | 1 to 500 | > 15000 | 1 to 500 | > 15000 | – | – | – | –
23 | Cc1cc([C@@H](C)Nc2ccccc2C(=O)O)c2cc(-c3cnc(C4CC4)cn3)n(C)c(=O)c2c1 [Example 517] | 1 to 500 | > 15000 | 1 to 500 | > 15000 | – | – | – | –
24 | C[C@@H](Nc1ccccc1C(=O)O)c1cc(F)cc2c(=O)n(C)c(-c3cnc(-c4nccs4)c(F)c3)cc12 [Example 518] | 1 to 500 | > 15000 | 1 to 500 | > 15000 | – | – | – | –
25 | Cc1ncc(-c2ncc(-c3cc4c([C@@H](C)Nc5ccccc5C(=O)O)cc(F)cc4c(=O)n3C)cc2F)s1 [Example 519] | – | – | – | – | 1 to 500 | > 15000 | 1 to 500 | > 15000
26 | Cc1cc(-c2ncc(-c3cc4c([C@@H](C)Nc5ccccc5C(=O)O)cc(F)cc4c(=O)n3C)cc2F)on1 [Example 520] | – | – | – | – | 1 to 500 | > 15000 | 1 to 500 | > 15000
